The assay relates to cytokines and gene expression in CRT-treated HNC patients. Kind of assay: Cytokine and gene microarray analyses of patient samples. The assay is classed as in vivo, human. As to the method:
SCV-07 efficacy, dosing and scheduling parameters were assessed in hamster models of acute, fractionated and concomitant chemoradiation (CRT). […] A multicenter, prospective, blinded, randomized trial evaluated SCV-07's ability to alter OM in CRT-treated HNC patients (n=57). Cytokine and gene microarray analyses were performed for samples obtained before and on the last radiation day.

The mark [1] stands for this setting: persons who clinically responded to SCV-07.

As for `N[C@H](CCC(=O)N[C@@H](Cc1c[nH]c2ccccc12)C(=O)O)C(=O)O` [SCV-07, γ-D-glutamyl-L-tryptophan], under “SCV-07-treated patients”, the ICAM entry is listed as “Increases”, the IL-1alpha result was “Decreases”, the IL-5 result is on record as “Decreases” and the IL-12 result is “Increases”. For the setting “SCV-07-treated patients”, the IL-15 result was “Decreases”, the MIF entry is “Increases”, the MIP-1beta result is “Increases” and the MIP-3 alpha entry was “Decreases”. Further, for the setting “SCV-07-treated patients”, the Pro-inflammatory cytokine levels result is reported as “reduced”, the TNF-alpha entry is given as “Decreases”, the VCAM entry is reported as “Increases” and the macrophage-associated cytokines result is given as “Elevated”. In addition, the “Gene expression (microarray)” value (SCV-07 vs placebo patients) was “Gene expression differences were noted”. Moreover, under setting [1], the IL-21 entry is “increases”, the MIF entry was “increases” and the VEGF result is “decrease”.

(Values after US20110245316A1, “PREVENTION OR DELAY OF ONSET OF ORAL MUCOSITIS” (SCICLONE PHARMACEUTICALS, INC., priority 2010, published 2011).)
